Experimental data taken from the NIST ThermoML archive (doi:10.1021/acs.jced.7b00657).
Numbers after ± are expanded uncertainties.

Tests used:
[1] = 298 K; 101.33 kPa; Liquid; Vibrating tube method
[2] = refractive index (Na D-line) (dimensionless); conditions: 293 K; 101.33 kPa; Liquid; Standard Abbe refractometry

mass density [1]: 1756 ± 1 kg/m3
refractive index [2]: 1.268 ± 0.001
SMILES: FC(F)(F)C(F)(F)C(F)(F)C(F)(F)C(F)(F)C(F)(F)C(F)(F)C(F)(F)F [octadecafluorooctane]
